This is an account of results in patent US9873693B2 (Sunesis Pharmaceuticals, Inc., priority 2006, dated 2018).

As usually defined, the IC50 is the concentration at which inhibition is half-maximal. What is called EC50 is the concentration needed to bring the measured effect to its halfway point.

The target of one assay is dephosphorylated PDK1 (Homo sapiens (Human), UniProt O15530). Nature of the assay: PDK1 kinase assay (coupled PDK1/AKT/FAM-crosstide, IMAP). In kind it is biochemical. The note with it: 25 nM un-phosphorylated PDK1, 24 μM ATP; read-out: Inhibition of dephospo-PDK1 in vitro IC50. The method, boiled down: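 The FAM-crosstide phosphorylation readout was IMAP polarization (ex 485/em 530 nm, 2 h binding), with 4-parameter fits of ΔmP data. The reaction ran 30 min at 25 °C with 24 μM ATP, and contained 25 nM phosphatase-treated PDK1 (aa 51–360) plus 30 nM unphosphorylated AKT2-PIFtide and 100 nM substrate. Buffer was 10 mM Tris pH 7.2, 10 mM MgCl2, 0.01% Triton X-100 and 1 mM DTT.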
Chain of dephosphorylated PDK1 (O15530 51-360): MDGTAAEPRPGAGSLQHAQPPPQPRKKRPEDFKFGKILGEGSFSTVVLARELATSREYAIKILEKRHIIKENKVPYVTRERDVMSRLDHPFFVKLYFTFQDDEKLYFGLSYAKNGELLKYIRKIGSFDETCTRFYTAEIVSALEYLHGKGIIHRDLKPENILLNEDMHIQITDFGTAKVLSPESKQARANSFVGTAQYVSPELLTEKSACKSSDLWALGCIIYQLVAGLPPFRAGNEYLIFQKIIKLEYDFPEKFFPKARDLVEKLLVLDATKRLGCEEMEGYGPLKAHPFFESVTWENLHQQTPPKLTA

The next assay addresses full-length PDK1 (Homo sapiens (Human), UniProt O15530). The experiment in a line: PDK phosphorylation of AKT and PKC-PIFtide in presence of PIP3 vesicles. The assay is classed as biochemical. The conditions noted are these: substrates PKC-PIFtide vs AKT2. The protocol: PDK phosphorylation of two different substrates, AKT and PKC-PIFtide, was measured in presence of pre-formed phophoinositol lipid PIP3 vesicles. 5 nM full-length PDK1 and was incubated with 100 nM substrate (unphosphorylated, full-length AKT2 or PKC-PIFtide, Invitrogen cat#P2925) in presence of test compound or DMSO at room temperature for 3 hours. Final buffer conditions were 10 mM Tris pH 7.5 buffer containing 10 mM MgCl2, 0.002% Triton X-100, 1 mM DTT, 0.2 mg/ml BSA, 10 uM PtdIns(3,4,5)P3 (Matreya, Inc), 100 uM DOPC:DOPS (Avanti Polar Lipids), and 0.5 uCi γ^33P-ATP (3000 Ci/mmol, Perkin-Elmer.)
Kinase reactions were stopped with addition of 50 uM non-labelled ATP and 5 mM EDTA, then acidified with 0.5% final concentration phosphoric acid. Labeled proteins were collected in Whatman P81 filter plates and washed with three 150 ul volumes of 0.5% phosphoric acid.
Lipid vesicles were pre-formed as follows. 15 mg (3 ampules) DOPC:DOPS was resuspended in 898 ul 10 mM HEPES pH 7.4. 1 mg PIP3 was resuspended in 1000 ul 10 mM HEPES pH 7.4. 964 ul of PIP3 was mixed with 800 ul DOPC:DOPS and diluted with 18.2 ml 10 mM HEPES pH 7.4 and mixed by vortexing. The lipid mixture was subjected to 5 cycles of freeze/thaw using liquid nitrogen and a 50° C. water bath. Aliquot of lipids were flash frozen and stored at −20° C.

Another assay has as its system phospho-akt (Thr308). Nature of the assay: phospho-akt (Thr308) MSD ELISA in PC-3 cells. The assay is classed as cell-based. The note with it: Homo sapiens, PC-3, 2 h, PC-3 cells, 2 hours, no serum; read-out: Inhibition of P308 Akt in cells using MSD EC50. In outline: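 Read-out is MSD electrochemiluminescence after lysate capture overnight at 4 degrees and 1 hr RT detection-antibody step. Before lysis, overnight-plated PC-3 cells received three-fold serial dilutions of inhibitor in serum-free medium, with DMSO-only high controls.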
A general note: ELISA stands for enzyme-linked immunosorbent assay.

For another assay, the target named is phosphorylated PDK1 (Homo sapiens (Human), UniProt O15530). The experiment in a line: PDK1 kinase assay (coupled PDK1/AKT/FAM-crosstide, IMAP). In kind it is biochemical. The conditions noted are these: 0.5 nM phosphorylated PDK1, 24 μM ATP; read-out: Inhibition of phospo-PDK1 in vitro IC50.
Chain of phosphorylated PDK1 (O15530 51-360): as above

Structures are written as SMILES. A value given as a limit tells only on which side of the number the result lay.

Chain of full-length PDK1 (O15530 whole entry): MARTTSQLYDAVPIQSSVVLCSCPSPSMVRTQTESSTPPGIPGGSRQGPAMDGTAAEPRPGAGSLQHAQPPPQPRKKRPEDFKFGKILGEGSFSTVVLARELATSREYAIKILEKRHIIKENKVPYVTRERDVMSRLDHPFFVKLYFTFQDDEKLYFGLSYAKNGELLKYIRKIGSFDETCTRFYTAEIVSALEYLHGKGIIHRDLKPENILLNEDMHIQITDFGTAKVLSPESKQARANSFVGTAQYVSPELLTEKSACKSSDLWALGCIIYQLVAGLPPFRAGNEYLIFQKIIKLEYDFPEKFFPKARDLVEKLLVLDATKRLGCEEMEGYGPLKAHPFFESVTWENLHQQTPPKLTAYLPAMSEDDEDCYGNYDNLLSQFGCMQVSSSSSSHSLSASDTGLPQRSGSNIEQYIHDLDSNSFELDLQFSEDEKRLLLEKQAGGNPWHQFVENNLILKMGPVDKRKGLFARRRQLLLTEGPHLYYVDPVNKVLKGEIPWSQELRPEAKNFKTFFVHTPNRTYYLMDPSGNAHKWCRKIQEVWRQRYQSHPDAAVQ

`O=C(NCc1nc(-c2c[nH]c3ncccc23)cs1)c1cccn(Cc2ccc(F)c(F)c2)c1=O` [Cpd 112]: the half-inhibitory concentration (IC50) at dephosphorylated PDK1 and on phosphorylated PDK1 was less than 500 nM in each case. Also, the “Ratio of PIP3 IC50 with PKCtide to PIP3 IC50 with AKT” value at full-length PDK1 was 71.9. Moreover, the EC50 in the assay on phospho-akt (Thr308) is less than 1000 nM.
